From ChEMBL document CHEMBL3414499, “Characterization of two distinct structural classes of selective aldehyde dehydrogenase 1A1 inhibitors” (J Med Chem, 2015)
Activity calls are given as the source filed them. The rule behind the calls is not given here.

Legend:
[1] = biological target: T1, Retinaldehyde dehydrogenase 3 (Homo sapiens) (UniProt P47895); assay: Effect on recombinant human ALDH1A3 using propionaldehyde as substrate at 20 uM preincubated for 2 mins with NAD+ followed by substrate addition by UV-Vis spectrophotometric analysis
T1 sequence (whole entry): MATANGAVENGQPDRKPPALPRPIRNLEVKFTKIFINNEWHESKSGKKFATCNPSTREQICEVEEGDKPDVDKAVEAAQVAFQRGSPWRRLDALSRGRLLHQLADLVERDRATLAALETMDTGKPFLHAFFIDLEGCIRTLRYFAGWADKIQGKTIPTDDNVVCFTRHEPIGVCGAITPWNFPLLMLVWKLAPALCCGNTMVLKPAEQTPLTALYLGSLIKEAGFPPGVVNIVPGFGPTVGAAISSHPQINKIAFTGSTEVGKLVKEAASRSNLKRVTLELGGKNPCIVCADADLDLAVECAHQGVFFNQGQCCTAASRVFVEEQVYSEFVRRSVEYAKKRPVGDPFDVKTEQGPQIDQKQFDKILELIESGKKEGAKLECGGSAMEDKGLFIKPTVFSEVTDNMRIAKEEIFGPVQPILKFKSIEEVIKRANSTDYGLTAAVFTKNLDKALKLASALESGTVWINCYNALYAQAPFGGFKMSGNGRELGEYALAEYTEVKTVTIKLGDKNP

[2] = biological target: T2, Aldehyde dehydrogenase, dimeric NADP-preferring (Homo sapiens) (UniProt P30838); assay: Effect on recombinant human ALDH3A1 using benzaldehyde as substrate at 20 uM preincubated for 2 mins with NAD+ followed by substrate addition by UV-Vis spectrophotometric analysis
T2 sequence (whole entry): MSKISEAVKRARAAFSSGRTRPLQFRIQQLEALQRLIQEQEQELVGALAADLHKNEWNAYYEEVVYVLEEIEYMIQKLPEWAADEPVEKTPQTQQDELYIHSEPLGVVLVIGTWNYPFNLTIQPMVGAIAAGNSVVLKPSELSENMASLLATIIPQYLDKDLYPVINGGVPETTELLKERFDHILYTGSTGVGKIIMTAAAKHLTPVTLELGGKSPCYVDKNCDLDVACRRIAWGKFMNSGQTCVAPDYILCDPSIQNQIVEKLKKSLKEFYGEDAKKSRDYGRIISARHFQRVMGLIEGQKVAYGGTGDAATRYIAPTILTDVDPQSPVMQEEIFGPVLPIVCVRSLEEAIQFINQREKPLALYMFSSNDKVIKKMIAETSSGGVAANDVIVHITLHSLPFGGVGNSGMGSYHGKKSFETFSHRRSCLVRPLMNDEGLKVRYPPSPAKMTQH

[3] = biological target: T3, Delta-1-pyrroline-5-carboxylate dehydrogenase, mitochondrial (Homo sapiens) (UniProt P30038); assay: Effect on human ALDH4A1 at 20 uM preincubated for 2 mins with NAD+ followed by aldehyde substrate addition
T3 sequence (whole entry): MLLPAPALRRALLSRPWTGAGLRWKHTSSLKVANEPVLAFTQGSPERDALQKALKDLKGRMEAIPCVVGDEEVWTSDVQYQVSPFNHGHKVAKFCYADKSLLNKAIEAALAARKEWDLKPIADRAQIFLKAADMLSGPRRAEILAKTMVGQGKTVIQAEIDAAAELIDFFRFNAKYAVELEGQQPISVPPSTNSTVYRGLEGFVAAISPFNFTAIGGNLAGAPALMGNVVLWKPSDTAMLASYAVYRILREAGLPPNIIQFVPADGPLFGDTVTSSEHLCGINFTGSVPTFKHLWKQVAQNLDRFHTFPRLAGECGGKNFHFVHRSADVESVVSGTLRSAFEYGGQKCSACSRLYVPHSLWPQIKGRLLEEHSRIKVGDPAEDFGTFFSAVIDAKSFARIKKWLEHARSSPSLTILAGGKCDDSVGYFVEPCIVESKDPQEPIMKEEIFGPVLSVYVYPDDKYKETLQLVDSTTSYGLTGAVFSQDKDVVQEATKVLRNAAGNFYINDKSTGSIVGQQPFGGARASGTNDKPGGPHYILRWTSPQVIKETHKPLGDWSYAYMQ

[4] = biological target: T4, Cytosolic 10-formyltetrahydrofolate dehydrogenase (Rattus norvegicus) (UniProt P28037); assay: Effect on rat carboxy terminal ALDH domain of ALDH1L1 at 20 uM preincubated for 2 mins with NAD+ followed by aldehyde substrate addition
T4 sequence (whole entry): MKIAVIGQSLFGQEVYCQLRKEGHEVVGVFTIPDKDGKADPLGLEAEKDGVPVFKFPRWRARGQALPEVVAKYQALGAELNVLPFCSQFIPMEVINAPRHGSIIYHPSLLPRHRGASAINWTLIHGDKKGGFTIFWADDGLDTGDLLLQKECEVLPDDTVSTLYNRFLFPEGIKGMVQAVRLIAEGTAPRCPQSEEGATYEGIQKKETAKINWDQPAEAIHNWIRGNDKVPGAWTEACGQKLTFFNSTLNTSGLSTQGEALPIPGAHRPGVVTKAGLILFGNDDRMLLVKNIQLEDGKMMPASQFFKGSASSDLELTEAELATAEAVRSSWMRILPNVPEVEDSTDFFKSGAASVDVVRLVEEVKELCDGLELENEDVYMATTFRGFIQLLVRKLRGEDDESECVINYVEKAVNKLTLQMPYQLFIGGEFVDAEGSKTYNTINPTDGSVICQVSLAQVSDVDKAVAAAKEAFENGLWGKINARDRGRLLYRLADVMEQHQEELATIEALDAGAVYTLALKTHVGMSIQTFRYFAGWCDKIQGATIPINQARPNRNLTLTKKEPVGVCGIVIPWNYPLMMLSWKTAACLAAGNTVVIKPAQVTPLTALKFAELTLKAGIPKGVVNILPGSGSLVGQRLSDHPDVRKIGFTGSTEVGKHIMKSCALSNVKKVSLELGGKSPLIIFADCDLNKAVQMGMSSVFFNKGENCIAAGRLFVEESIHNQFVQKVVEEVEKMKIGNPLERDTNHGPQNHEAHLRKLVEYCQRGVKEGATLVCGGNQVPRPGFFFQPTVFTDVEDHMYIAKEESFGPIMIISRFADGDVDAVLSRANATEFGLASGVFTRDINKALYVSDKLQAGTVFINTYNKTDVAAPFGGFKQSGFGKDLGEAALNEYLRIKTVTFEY

[5] = biological target: T5, Aldehyde dehydrogenase, dimeric NADP-preferring (Homo sapiens, UniProt P30838); assay: Inhibition of recombinant human ALDH3A1 using benzaldehyde as substrate preincubated for 2 mins with NAD+ followed by substrate addition by UV-Vis spectrophotometric analysis
T5 sequence (P30838 whole entry): T2 sequence (whole entry)

Row | SMILES | Activity [1] | Activity [2] | Activity [3] | Activity [4] | IC50 [5]
1 | CC(C)CCn1c(CN2CCN(C(=O)c3ccco3)CC2)nc2c1c(=O)n(C)c(=O)n2C | inactive | inactive | inactive | inactive | 
2 | Cn1c(=O)c2c(nc(SCC(N)=O)n2Cc2ccccc2F)n(C)c1=O |  |  |  |  | > 100 µM
